Measured values as given in the NIST ThermoML archive (doi:10.1021/je600519p).
Numbers after ± are expanded uncertainties.

Assay: xn = mol fraction of the nth substance listed
Settings: 101 kPa, Liquid

With CCOC(=O)OCC [diethyl carbonate] + CCCCCCO the mass density (313.15 K, x1 = 0.0502) was 811.04 ± 0.76 kg/m3, the speed of sound (313.15 K, x1 = 0.0502) was 1252 ± 10 m/s and the viscosity (313.15 K, x1 = 0.0502) was 2.621 ± 0.12 mPa·s. It also gave a mass density (313.15 K, x1 = 0.1123) of 819.37 ± 0.73 kg/m3, a speed of sound (313.15 K, x1 = 0.1123) of 1236 ± 10 m/s and a viscosity (313.15 K, x1 = 0.1123) of 2.339 ± 0.11 mPa·s. It also gave a mass density (313.15 K, x1 = 0.1499) of 824.54 ± 0.71 kg/m3, a speed of sound (313.15 K, x1 = 0.1499) of 1224 ± 10 m/s and a viscosity (313.15 K, x1 = 0.1499) of 2.115 ± 0.097 mPa·s. It also gave a mass density (313.15 K, x1 = 0.2103) of 832.78 ± 0.69 kg/m3, a speed of sound (313.15 K, x1 = 0.2103) of 1211 ± 10 m/s and a viscosity (313.15 K, x1 = 0.2103) of 1.856 ± 0.086 mPa·s. For the same compound, the mass density (313.15 K, x1 = 0.2508) was 838.35 ± 0.67 kg/m3, the speed of sound (313.15 K, x1 = 0.2508) was 1203 ± 10 m/s and the viscosity (313.15 K, x1 = 0.2508) was 1.687 ± 0.079 mPa·s. It also gave a mass density (313.15 K, x1 = 0.3121) of 846.97 ± 0.65 kg/m3, a speed of sound (313.15 K, x1 = 0.3121) of 1192 ± 10 m/s and a viscosity (313.15 K, x1 = 0.3121) of 1.466 ± 0.07 mPa·s. For the same compound, the mass density (313.15 K, x1 = 0.3576) was 853.42 ± 0.63 kg/m3, the speed of sound (313.15 K, x1 = 0.3576) was 1185 ± 10 m/s and the viscosity (313.15 K, x1 = 0.3576) was 1.319 ± 0.063 mPa·s. It also gave a mass density (313.15 K, x1 = 0.4113) of 861.12 ± 0.61 kg/m3, a speed of sound (313.15 K, x1 = 0.4113) of 1177 ± 10 m/s and a viscosity (313.15 K, x1 = 0.4113) of 1.16 ± 0.056 mPa·s. For the same compound, the mass density (313.15 K, x1 = 0.4632) was 868.59 ± 0.59 kg/m3, the speed of sound (313.15 K, x1 = 0.4632) was 1170 ± 10 m/s and the viscosity (313.15 K, x1 = 0.4632) was 1.031 ± 0.051 mPa·s. For the same compound, the mass density (313.15 K, x1 = 0.5111) was 875.61 ± 0.56 kg/m3, the speed of sound (313.15 K, x1 = 0.5111) was 1165 ± 10 m/s and the viscosity (313.15 K, x1 = 0.5111) was 0.912 ± 0.046 mPa·s. The mass density (313.15 K, x1 = 0.552) was 881.55 ± 0.55 kg/m3, the speed of sound (313.15 K, x1 = 0.552) was 1162 ± 10 m/s and the viscosity (313.15 K, x1 = 0.552) was 0.826 ± 0.042 mPa·s. It also gave a mass density (313.15 K, x1 = 0.6008) of 888.91 ± 0.53 kg/m3, a speed of sound (313.15 K, x1 = 0.6008) of 1158 ± 10 m/s and a viscosity (313.15 K, x1 = 0.6008) of 0.744 ± 0.038 mPa·s. The mass density (313.15 K, x1 = 0.6498) was 896.35 ± 0.51 kg/m3, the speed of sound (313.15 K, x1 = 0.6498) was 1155 ± 10 m/s and the viscosity (313.15 K, x1 = 0.6498) was 0.689 ± 0.036 mPa·s. It also gave a mass density (313.15 K, x1 = 0.7108) of 905.65 ± 0.48 kg/m3, a speed of sound (313.15 K, x1 = 0.7108) of 1153 ± 10 m/s and a viscosity (313.15 K, x1 = 0.7108) of 0.61 ± 0.033 mPa·s. The mass density (313.15 K, x1 = 0.7554) was 912.55 ± 0.46 kg/m3, the speed of sound (313.15 K, x1 = 0.7554) was 1152 ± 10 m/s and the viscosity (313.15 K, x1 = 0.7554) was 0.607 ± 0.032 mPa·s. It also gave a mass density (313.15 K, x1 = 0.8112) of 921.16 ± 0.43 kg/m3, a speed of sound (313.15 K, x1 = 0.8112) of 1151 ± 10 m/s and a viscosity (313.15 K, x1 = 0.8112) of 0.602 ± 0.032 mPa·s. The mass density (313.15 K, x1 = 0.8501) was 927.49 ± 0.42 kg/m3, the speed of sound (313.15 K, x1 = 0.8501) was 1150 ± 10 m/s and the viscosity (313.15 K, x1 = 0.8501) was 0.606 ± 0.032 mPa·s. It also gave a mass density (313.15 K, x1 = 0.9002) of 935.57 ± 0.39 kg/m3, a speed of sound (313.15 K, x1 = 0.9002) of 1148 ± 10 m/s and a viscosity (313.15 K, x1 = 0.9002) of 0.61 ± 0.033 mPa·s. For the same compound, the mass density (313.15 K, x1 = 0.9555) was 944.49 ± 0.37 kg/m3, the speed of sound (313.15 K, x1 = 0.9555) was 1146 ± 10 m/s and the viscosity (313.15 K, x1 = 0.9555) was 0.615 ± 0.033 mPa·s. The mass density (323.15 K, x1 = 0.0502) was 803.29 ± 0.77 kg/m3, the speed of sound (323.15 K, x1 = 0.0502) was 1204 ± 10 m/s and the viscosity (323.15 K, x1 = 0.0502) was 2.06 ± 0.095 mPa·s. The mass density (323.15 K, x1 = 0.1123) was 811.3 ± 0.75 kg/m3, the speed of sound (323.15 K, x1 = 0.1123) was 1184 ± 10 m/s and the viscosity (323.15 K, x1 = 0.1123) was 1.825 ± 0.085 mPa·s. The mass density (323.15 K, x1 = 0.1499) was 816.2 ± 0.73 kg/m3, the speed of sound (323.15 K, x1 = 0.1499) was 1172 ± 10 m/s and the viscosity (323.15 K, x1 = 0.1499) was 1.689 ± 0.079 mPa·s. For the same compound, the mass density (323.15 K, x1 = 0.2103) was 824.2 ± 0.71 kg/m3, the speed of sound (323.15 K, x1 = 0.2103) was 1160 ± 10 m/s and the viscosity (323.15 K, x1 = 0.2103) was 1.488 ± 0.071 mPa·s. For the same compound, the mass density (323.15 K, x1 = 0.2508) was 829.57 ± 0.69 kg/m3, the speed of sound (323.15 K, x1 = 0.2508) was 1153 ± 10 m/s and the viscosity (323.15 K, x1 = 0.2508) was 1.367 ± 0.065 mPa·s. For the same compound, the mass density (323.15 K, x1 = 0.3121) was 837.88 ± 0.67 kg/m3, the speed of sound (323.15 K, x1 = 0.3121) was 1143 ± 10 m/s and the viscosity (323.15 K, x1 = 0.3121) was 1.22 ± 0.059 mPa·s. For the same compound, the mass density (323.15 K, x1 = 0.3576) was 844.05 ± 0.65 kg/m3, the speed of sound (323.15 K, x1 = 0.3576) was 1137 ± 10 m/s and the viscosity (323.15 K, x1 = 0.3576) was 1.093 ± 0.054 mPa·s. It also gave a mass density (323.15 K, x1 = 0.4113) of 851.48 ± 0.63 kg/m3, a speed of sound (323.15 K, x1 = 0.4113) of 1131 ± 10 m/s and a viscosity (323.15 K, x1 = 0.4113) of 0.97 ± 0.048 mPa·s. For the same compound, the mass density (323.15 K, x1 = 0.4632) was 858.73 ± 0.61 kg/m3, the speed of sound (323.15 K, x1 = 0.4632) was 1126 ± 10 m/s and the viscosity (323.15 K, x1 = 0.4632) was 0.857 ± 0.043 mPa·s. It also gave a mass density (323.15 K, x1 = 0.5111) of 865.59 ± 0.59 kg/m3, a speed of sound (323.15 K, x1 = 0.5111) of 1123 ± 9 m/s and a viscosity (323.15 K, x1 = 0.5111) of 0.765 ± 0.039 mPa·s. The mass density (323.15 K, x1 = 0.552) was 871.51 ± 0.57 kg/m3, the speed of sound (323.15 K, x1 = 0.552) was 1121 ± 9 m/s and the viscosity (323.15 K, x1 = 0.552) was 0.689 ± 0.036 mPa·s. It also gave a mass density (323.15 K, x1 = 0.6008) of 878.65 ± 0.55 kg/m3, a speed of sound (323.15 K, x1 = 0.6008) of 1119 ± 9 m/s and a viscosity (323.15 K, x1 = 0.6008) of 0.607 ± 0.033 mPa·s. The mass density (323.15 K, x1 = 0.6498) was 885.85 ± 0.53 kg/m3, the speed of sound (323.15 K, x1 = 0.6498) was 1117 ± 9 m/s and the viscosity (323.15 K, x1 = 0.6498) was 0.568 ± 0.031 mPa·s. For the same compound, the mass density (323.15 K, x1 = 0.7108) was 894.96 ± 0.5 kg/m3, the speed of sound (323.15 K, x1 = 0.7108) was 1115 ± 9 m/s and the viscosity (323.15 K, x1 = 0.7108) was 0.532 ± 0.029 mPa·s. The mass density (323.15 K, x1 = 0.7554) was 901.77 ± 0.48 kg/m3, the speed of sound (323.15 K, x1 = 0.7554) was 1114 ± 9 m/s and the viscosity (323.15 K, x1 = 0.7554) was 0.535 ± 0.029 mPa·s. It also gave a mass density (323.15 K, x1 = 0.8112) of 910.41 ± 0.46 kg/m3, a speed of sound (323.15 K, x1 = 0.8112) of 1113 ± 9 m/s and a viscosity (323.15 K, x1 = 0.8112) of 0.537 ± 0.029 mPa·s. For the same compound, the mass density (323.15 K, x1 = 0.8501) was 916.42 ± 0.44 kg/m3, the speed of sound (323.15 K, x1 = 0.8501) was 1112 ± 9 m/s and the viscosity (323.15 K, x1 = 0.8501) was 0.54 ± 0.03 mPa·s. The mass density (323.15 K, x1 = 0.9002) was 924.3 ± 0.42 kg/m3, the speed of sound (323.15 K, x1 = 0.9002) was 1111 ± 9 m/s and the viscosity (323.15 K, x1 = 0.9002) was 0.544 ± 0.03 mPa·s. The mass density (323.15 K, x1 = 0.9555) was 933.24 ± 0.4 kg/m3, the speed of sound (323.15 K, x1 = 0.9555) was 1110 ± 9 m/s and the viscosity (323.15 K, x1 = 0.9555) was 0.548 ± 0.03 mPa·s.
